Laboratory results reported in patent US11873291B2, “Quinoline cGAS antagonist compounds” (ImmuneSensor Therapeutics, Inc., priority 2020, dated 2024).

These compounds were tested against T1, recombinant human cGAS (aa147-522) (Homo sapiens, UniProt Q8N884) (assay: In vitro inhibition assay of cGAS activity (ATP consumption, KinaseGlo Max)). Settings: Table 2, read-out: cGAS Inhibition Results IC50.
T1 construct: recombinant human cGAS (aa147-522); His6-SUMO (cleaved yes); made in house; host or cells: E. coli BL21/pLys
T1 sequence (Q8N884 147-522): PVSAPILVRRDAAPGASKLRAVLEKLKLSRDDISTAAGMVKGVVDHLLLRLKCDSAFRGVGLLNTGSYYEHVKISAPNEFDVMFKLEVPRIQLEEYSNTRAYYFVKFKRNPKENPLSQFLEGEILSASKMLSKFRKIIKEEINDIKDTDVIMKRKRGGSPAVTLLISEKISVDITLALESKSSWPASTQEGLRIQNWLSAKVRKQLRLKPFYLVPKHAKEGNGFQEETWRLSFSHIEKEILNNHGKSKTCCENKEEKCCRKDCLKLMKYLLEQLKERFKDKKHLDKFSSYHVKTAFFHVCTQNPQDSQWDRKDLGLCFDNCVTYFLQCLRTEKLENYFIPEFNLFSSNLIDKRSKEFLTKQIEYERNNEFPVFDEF
Assay type: biochemical
How it was run: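 De-tagged recombinant human cGAS (aa147-522, 1.5 μg/mL) was incubated 20 min at 37 °C with herring testis DNA, 6.6 μM ATP and 0.1 mM GTP in Tris pH 7.5/MgCl2 buffer plus serial compound dilutions. Remaining ATP was read by KinaseGlo Max luminescence, and IC50 was fitted from % ATP consumption versus log concentration.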

`COc1ccc2c(-n3ccnc3)ccnc2c1` [I-417] and `Brc1ccc2c(-n3cncn3)ccnc2c1` [I-418] cannot be ordered by IC50: > 30 µM for the first, > 30 µM for the second.

`CS(=O)(=O)NC[C@@H]1CCCN1c1cc(-n2ccnc2)c2ccc(Cl)c(Cl)c2n1` [I-151] and `O[C@@H]1CCN(c2cc(-n3ccnc3)c3ccc(Cl)c(Cl)c3n2)C1` [I-145] cannot be ordered by IC50: < 2 µM for the first, < 2 µM for the second.

First: CC(C)(C)OC(=O)NS(=O)(=O)N1CCOC(CNc2cc(-n3ccnc3)c3ccc(Cl)c(Cl)c3n2)C1 (stereo not shown) [I-398, tert-butyl ((2-(((7,8-dichloro-4-(1H-imidazol-1-yl)quinolin-2-yl)amino)methyl)morpholino)sulfonyl)carbamate]
Second: O=C(O)[C@H](CO)Nc1cc(-n2ccnc2)c2ccc(Cl)c(Cl)c2n1 [I-168, (7,8-Dichloro-4-(1H-imidazol-1-yl)quinolin-2-yl)serine]
The IC50 of the first is higher: 2 to 30 µM for the first, < 2 µM for the second.

Compared with `Nc1cc(C(=O)O)cc(-c2cc(-n3ccnc3)c3ccc(Cl)cc3n2)c1` [I-22, 3-amino-5-(7-chloro-4-(1H-imidazol-1-yl)quinolin-2-yl)benzoic acid], `O=C(O)Cc1cccc(-c2cc(-n3ccnc3)c3ccc(Cl)cc3n2)c1` [I-9] is higher in IC50: < 2 µM for the first, > 30 µM for the second. The first is the more potent here.

Going from `O=C(O)c1cc(-c2cc(-n3ccnc3)c3ccc(Cl)cc3n2)ccc1OCCO` [I-21, 5-(7-chloro-4-(1H-imidazol-1-yl)quinolin-2-yl)-2-(2-hydroxyethoxy)benzoic acid] to `O=C(O)c1ccccc1-c1cc(-n2ccnc2)c2ccc(Cl)cc2n1` [I-13], the IC50 rises from < 2 µM to > 30 µM. The first is the more potent here.

`Clc1ccc2c(-n3cncc3C3CC3)cc(-c3ccccc3)nc2c1` [I-65] and `O=S(=O)(NC1CCCN(c2cc(-n3ccnc3)c3ccc(Cl)cc3n2)C1)c1ccccc1` (stereo not shown) [I-107] cannot be ordered by IC50: > 30 µM for the first, > 30 µM for the second.

First: O=C1CCN(c2cc(-n3ccnc3)c3ccc(Cl)c(Cl)c3n2)CCN1 [I-88]
Second: Cc1cc(N2CCNC(=O)C2)c2ccc(Cl)c(Cl)c2n1 [I-302]
The IC50 of the first is lower: 2 to 30 µM for the first, > 30 µM for the second.

Going from `COc1ccc(-c2cc(-n3ccnc3)c3ccc(Cl)c(Cl)c3n2)cc1C#N` [I-40] to `COc1c(Br)ccc2c(-n3ccnc3)cc(-c3cccc(C(=O)O)c3)nc12` [I-48, 3-(7-Bromo-4-(1H-imidazol-1-yl)-8-methoxyquinolin-2-yl)benzoic acid], the IC50 falls from > 30 µM to < 2 µM. The second is the more potent here.

First: O=C(O)c1cc2c(c(-c3cc(-n4ccnc4)c4ccc(Cl)cc4n3)c1)OCO2 [I-37]
Second: O=C(O)[C@@H]1CN(c2cc(-n3ccnc3)c3ccc(Cl)cc3n2)CC[C@H]1O [I-130]
The IC50 of the first is higher: > 30 µM for the first, 2 to 30 µM for the second.

`CC(C)N(CCN1CCOCC1)c1cc(-c2cn[nH]c2)c2ccc(Cl)c(Cl)c2n1` [I-358] and `CCN(CCN1CCOCC1)c1cc(-c2cn[nH]c2)c2ccc(Cl)c(Cl)c2n1` [I-212] fall in the same range of IC50: 2 to 30 µM for the first, 2 to 30 µM for the second.

First: CN(CCO)c1cc(-c2cn[nH]c2)nc2c(Cl)c(Cl)ccc12 [I-297]
Second: O=C(O)CNc1cc(-c2cn[nH]c2)c2ccc(Cl)c(Cl)c2n1 [I-177, (7,8-dichloro-4-(1H-pyrazol-4-yl)quinolin-2-yl)glycine]
The IC50 of the first is higher: > 30 µM for the first, 2 to 30 µM for the second. The second is the more potent here.

First: Cc1cc(NCC(=O)O)c2ccc(Cl)c(Cl)c2n1 [I-293]
Second: O=C(O)CNc1cc(-c2cn[nH]c2)nc2c(Cl)cc(Cl)cc12 [I-288]
The IC50 of the first is higher: 2 to 30 µM for the first, < 2 µM for the second. The second is the more potent here.

Compared with `NS(=O)(=O)CCNc1cc(-c2cn[nH]c2)c2cc(Cl)c(Cl)cc2n1` [I-260], `O=C(O)[C@@H]1CCN1c1cc(-c2cn[nH]c2)c2ccc(Cl)c(Cl)c2n1` [I-352] is higher in IC50: < 2 µM for the first, 2 to 30 µM for the second.

Compared with `O=C(O)[C@@H]1CCCN1c1cc(-c2cn[nH]c2)nc2c(Cl)c(Cl)ccc12` [I-291], `O=C(O)[C@@H]1C[C@@H](O)CN1c1cc(-c2cn[nH]c2)c2ccc(Cl)c(Cl)c2n1` [I-433] is lower in IC50: 2 to 30 µM for the first, < 2 µM for the second.

`O=C(O)C[C@@H](Nc1cc(-n2ccnc2)c2ccc(Cl)c(Cl)c2n1)c1ccccc1` [I-189] and `OC[C@@H](Nc1cc(-n2ccnc2)c2ccc(Cl)c(Cl)c2n1)c1ccccc1` [I-246] fall in the same range of IC50: 2 to 30 µM for the first, 2 to 30 µM for the second.

`O=C(O)CC1CCN(c2cc(-n3ccnc3)c3ccc(Cl)cc3n2)C1` (stereo not shown) [I-446] and `O=C(NO)[C@@H]1CCCN(c2cc(-n3ccnc3)c3ccc(Cl)cc3n2)C1` [I-137, (R)-1-(7-chloro-4-(1H-imidazol-1-yl)quinolin-2-yl)-N-hydroxypiperidine-3-carboxamide] fall in the same range of IC50: 2 to 30 µM for the first, 2 to 30 µM for the second.

`CN(CCNS(C)(=O)=O)c1cc(-n2ccnc2)c2ccc(Cl)c(Cl)c2n1` [I-225] and `CN(CCNS(C)(=O)=O)c1cc(-n2ccnc2)c2ccc(Cl)cc2n1` [I-234] cannot be ordered by IC50: < 2 µM for the first, < 2 µM for the second.

Compared with `O=S(=O)(O)CC(Cc1ccccc1)Nc1cc(-n2ccnc2)c2ccc(Cl)c(Cl)c2n1` (stereo not shown) [I-162, 2-((7,8-dichloro-4-(1H-imidazol-1-yl)quinolin-2-yl)amino)-3-phenylpropane-1-sulfonic acid], `CN(CCC(=O)NCC(=O)O)c1cc(-n2ccnc2)c2ccc(Cl)c(Cl)c2n1` [I-321] is lower in IC50: > 30 µM for the first, < 2 µM for the second. The second is the more potent here.

Work on `CN(CCNS(=O)(=O)c1cccnc1)c1cc(-n2ccnc2)c2ccc(Cl)cc2n1` [I-231] yielded an IC50 of 2 to 30 µM.

Same assay, conditions: Table 3, read-out: cGAS Inhibition Results IC50

`O=C(O)CCOC(C(=O)O)[C@@H]1CCCN1c1cc(-n2ccnc2)c2ccc(Cl)c(Cl)c2n1` (stereo partly shown) [I-818] and `O=C(O)CCO[C@H]([C@@H]1CCCN1c1cc(-n2ccnc2)c2ccc(Cl)c(Cl)c2n1)C(F)(F)F` [I-721] fall in the same range of IC50: 2 to 30 µM for the first, 2 to 30 µM for the second.

`O=C(O)[C@@H]1Cc2ccccc2N1c1cc(-n2ccnc2)c2ccc(Cl)c(Cl)c2n1` [I-476] and `COC(=O)[C@@H]1Cc2ccccc2N1c1cc(-n2ccnc2)c2ccc(Cl)c(Cl)c2n1` [I-581] fall in the same range of IC50: 2 to 30 µM for the first, 2 to 30 µM for the second.

Compared with `COC(=O)[C@@H]1C[C@H](C(F)(F)F)CN1c1cc(-n2ccnc2)c2ccc(Cl)c(Cl)c2n1` [I-462], `C[C@@H]1C[C@@H](C(=O)O)N(c2cc(-n3ccnc3)c3ccc(Cl)c(Cl)c3n2)C1` [I-481] is lower in IC50: 2 to 30 µM for the first, < 2 µM for the second.

First: OC[C@@H]1CC(F)(F)CN1c1cc(-n2ccnc2)c2ccc(Cl)c(Cl)c2n1 [I-504]
Second: NC(=O)[C@@H]1C[C@@H](O)CN1c1cc(-n2ccnc2)c2ccc(Cl)c(Cl)c2n1 [I-502]
The IC50 of the first is lower: < 2 µM for the first, 2 to 30 µM for the second. The first is the more potent here.

Compared with `CN(CCCOc1ccc(Cl)cc1C(=O)O)c1cc(-n2ccnc2)c2ccc(Cl)c(Cl)c2n1` [I-847], `O=C(O)[C@@H]1CC[C@H](c2ccccc2)N1c1cc(-n2ccnc2)c2ccc(Cl)c(Cl)c2n1` [I-487] is lower in IC50: 2 to 30 µM for the first, < 2 µM for the second. The second is the more potent here.

First: O=C(O)CCOC[C@@H]1CCCN1c1cc(-c2cc[nH]n2)c2ccc(Cl)c(Cl)c2n1 [I-823]
Second: COc1cccc2c(-c3cn[nH]c3)cc(N3CCC[C@H]3COCCC(=O)O)nc12 [I-859]
The IC50 of the first is higher: > 30 µM for the first, 2 to 30 µM for the second.

First: COC(=O)[C@@H]1[C@H](OCC(=O)O)CCN1c1cc(-n2ccnc2)c2ccc(Cl)c(Cl)c2n1 [I-648]
Second: O=C(O)CS(=O)(=O)NC[C@@H]1CCCN1c1cc(-n2ccnc2)c2ccc(Cl)c(Cl)c2n1 [I-639]
The IC50 of the first is higher: 2 to 30 µM for the first, < 2 µM for the second.

`O=C(O)c1ccc(S(=O)(=O)N[C@@H]2C[C@@H](C(=O)O)N(c3cc(-n4ccnc4)c4ccc(Cl)c(Cl)c4n3)C2)cc1` [I-511] and `O=C(O)C[C@@H]1CCCN1C(=O)[C@@H]1CCCN1c1cc(-n2ccnc2)c2ccc(Cl)c(Cl)c2n1` [I-553] cannot be ordered by IC50: < 2 µM for the first, < 2 µM for the second.

`OC([C@@H]1CCCN1c1cc(-n2ccnc2)c2ccc(Cl)c(Cl)c2n1)(C(F)(F)F)C(F)(F)F` [I-656, (S)-2-(1-(7,8-dichloro-4-(1H-imidazol-1-yl)quinolin-2-yl)pyrrolidin-2-yl)-1,1,1,3,3,3-hexafluoropropan-2-ol] and `CCOc1c(Cl)ccc2c(-n3ccnc3)cc(N3CCC[C@H]3COCCC(=O)O)nc12` [I-861] cannot be ordered by IC50: > 30 µM for the first, > 30 µM for the second.
